Source: PMC13242511, “Disrupting Notch signalling by a small molecule inhibiting dihydroorotate dehydrogenase activity” (Scientific Reports, 2026)
“And” between values parts separate entries of the source, which are not always exact repeats. Equal values may be shown once. “Also recorded” adds a separate entry of the source. Read-outs that look alike come from different tables or passages of the source.

How the values were obtained:
Notch signalling = test: Notch reporter assay (12xCSL firefly luciferase / renilla luciferase, HEK293T Notch1ΔE reporter cell line clone #A1-11); assay type: cell-based; parameters: AUC Notch: scale not given here; conditions: for activity: 1,25µM; for AUC Notch: area under the 14-point dose-response curve; for Bottom (Emax): Emax indicated independent from assay constraints, in % (unit assumed); for reporter signal in % of DMSO: inhibitor controls, Supplemental Fig. 2A; for Notch assay: overview in comparison to compound C, Supplemental Fig. 9
Summary of the method: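 Compounds at two-fold concentration in 10 µl medium were brought to one-fold by adding 10 µl holding 4000 Notch reporter cells (clone #A1-11) per well of a 384-well plate. After 24 h, Promega dual-GLO firefly and renilla luciferase were read on a SpectraMaxi3. Dose-response curves were fitted with a log(inhibitor) vs. response variable-slope model.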

γ-secretase complex = γ-secretase complex (Homo sapiens, UniProt P49768); test: APP-C99 counter assay (GSI reporter assay); assay type: cell-based; parameters: AUC APP: scale not given here; conditions: for remaining activity at 10 µM / remaining activity at 25 µM / remaining activity at […]: 24 h, APP-C99 counter assay, read-out: 3p-DR in % of DMSO counter; for remaining activity at […]: 1,25µM; for AUC APP: area under the 14-point dose-response curve, replicates averaged; for APP assay: overview in comparison to compound C, Supplemental Fig. 9
Summary of the method: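 Cells transfected with APP-C99 firefly luciferase reporter plus renilla normalization plasmid, seeded 24 h later onto compound plates and cultured 24 h. Dual luciferase read in triplicate per concentration; IC50 from variable-slope log(inhibitor) fit, with AUC also calculated from dose–response curves.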

[1] = Homo sapiens, HEK-293T, 14p Notch assay DR, bottom constrained to Emax of positive control DAPT, read-out: approximated IC50
[2] = Homo sapiens, HEK-293T, 14p Notch assay DR, bottom constrained to Emax of positive control RO4929097, read-out: approximated IC50
[3] = Homo sapiens, HEK-293T, 14p Notch assay DR, log10 value, bottom constrained to Emax of positive control DAPT, read-out: approximated LogIC50 (converted)
[4] = Homo sapiens, HEK-293T, 14p Notch assay DR, log10 value, bottom constrained to Emax of positive control RO4929097, read-out: approximated LogIC50 (converted)
[5] = Homo sapiens, HEK-293T, 10 µM, primary screen, 24 h, unit from Fig. 2 legend, read-out: Primary screen at 10 µM (Notch reporter signal)
[6] = Homo sapiens, HEK-293T, 10 µM, three-dose confirmation screen, unit from Fig. 2 legend, read-out: Hit confirmation at 10 µM (Notch reporter signal)
[7] = Homo sapiens, HEK-293T, 10µM, 3-point DR confirmation screen, Notch reporter assay, read-out: inhibitor ratio in % of DMSO in 3 point DR
[8] = Homo sapiens, HEK-293T, 10 µM, sheet conf vs counter 10 µM, same values as 3-point DR confirmation screen, read-out: Confirmation screen
[9] = Homo sapiens, HEK-293T, 25µM, 3-point DR confirmation screen, Notch reporter assay, read-out: inhibitor ratio in % of DMSO in 3 point DR
[10] = Homo sapiens, HEK-293T, 25 µM, Notch reporter 3-point dose-confirmation assay, sheet "conf vs counter 25 µM", read-out: Confirmation screen
[11] = Homo sapiens, HEK-293T, 3-point DR confirmation screen, Notch reporter assay, read-out: inhibitor ratio in % of DMSO in 3 point DR
[12] = 14p APP assay DR, bottom constrained to Emax of positive control LY-411575
[13] = Homo sapiens, HEK-293T, 14-point dose-response, Fig. 4, read-out: approximated IC50, Notch reporter assay
[14] = 9p dose response, AUCs averaged when replicates available
[15] = 14p dose response, AUCs averaged when replicates available

Row | IC50 (Notch signalling; [1]) | IC50 (Notch signalling; [3]) | Hill-slope (γ-secretase complex; [12]) | remaining activity at 10 µM (γ-secretase complex) | remaining activity at 25 µM (γ-secretase complex) | remaining activity at […] (γ-secretase complex) | AUC APP (γ-secretase complex) | Structure (SMILES) | activity at 10 µM (Notch signalling; [5]) | activity at 10 µM (Notch signalling; [6]) | activity at 10 µM (Notch signalling; [7]) | activity at 10 µM (Notch signalling; [8]) | activity at 25 µM (Notch signalling; [9]) | activity at 25 µM (Notch signalling; [10]) | activity (Notch signalling; [11]) | AUC Notch (Notch signalling; replicates averaged) | Bottom (Emax) (Notch signalling; 14p Notch assay DR) | further results
1 | 3.5 µM | 3.16 µM | -2.25e-11 | 145% | 135% | 126% | 774.2 | Cc1[nH]c2cccc(C(=O)N3CCCCC3CCNC(=O)c3ccccc3)c2c1C (centres unmarked) [CBK285976] | 37.7% | 54.9% | 54.9% | 54.9% | 38.3% | 38.3% | 100% | 532.0 |  | IC50 (Notch signalling; Homo sapiens, HEK-293T, 14p Notch assay DR, averaged when replicate measurements were available, read-out: averaged IC50s): 3.2 µM; IC50 (Notch signalling; [2]): 3 µM; IC50 (Notch signalling; [4]): 3.16 µM; Hill-slope (γ-secretase complex; 14p APP assay DR, bottom constrained to Emax of positive control CB-103): 0.344; curve fit information (γ-secretase complex; [12]): IC50 indeterminate
2 |  |  | -0.0118 | 152% | 184% | 147% |  | CC(=O)N1CCc2sccc2C1c1ccccc1NCc1ccoc1 (centres unmarked) [CBK286432] | 37.6% | 57.2% | 57.2% | 57.2% | 45.5% | 45.5% | 88.7% |  |  | 
3 |  |  |  |  |  |  | 642.7 | CC(=O)N1CCc2sccc2C1c1ccccc1NC(=O)c1ccco1 (centres unmarked) [CBK286436] |  |  |  |  |  |  |  | 629.0 | 99.7 | curve fit information (γ-secretase complex; [12]): IC50 indeterminate
4 |  |  |  |  |  |  | 499.9 | O=C(Nc1nnc(-c2ccc3c(c2)OCCO3)o1)c1cccc(F)c1 [CBK287402] |  |  |  |  |  |  |  | 353.0 | 87.8 | curve fit information (γ-secretase complex; [12]): IC50 indeterminate
5 | 3 µM | 3.16 µM |  | 137% | 153% | 124% | 502.9 | O=C(Nc1nnc(-c2ccc3c(c2)OCCO3)o1)c1ccccc1F [CBK287405] | 36.4% | 44% | 44% | 44% | 37.6% | 37.6% | 85.1% | 288.0 | 15.0 | curve fit information (γ-secretase complex; [12]): IC50 indeterminate
6 |  |  | -1.2 |  |  |  | 490.0 | COc1cccc(-c2nnc(NC(=O)c3ccc4c(c3)OCCO4)o2)c1 [CBK287591] |  |  |  |  |  |  |  | 363.0 | 88.3 | 
7 | 3.2 µM | 3.16 µM | -0.00263 | 115% | 129% | 119% | 662.9 | Cc1ccc(-c2noc([C@@H]3Cc4[nH]cnc4CN3C(=O)CCC(=O)O)n2)cc1 [CBK288958] | 50.2% | 49.6% | 49.6% | 49.6% | 32.2% | 32.2% | 87.5% | 600.0 | 57.4 | 
8 | 5.4 µM | 5.01 µM | -6.4 | 120% | 78.7% | 112% | 443.8 | COc1ccc(C(=O)N2Cc3nc[nH]c3C[C@H]2c2nc(-c3ccc(OC)cc3)no2)cc1 [CBK288966] | 57.1% | 58.5% | 58.5% | 58.5% | 61.1% | 61.1% | 83.6% | 299.0 | 57.5 | 
9 | 5 µM | 5.01 µM | 0.121 | 129% | 156% | 92.5% | 566.4 | Cc1ccccc1Nc1nc(N)nc(CN2CCCC(C(F)(F)F)C2)n1 (centres unmarked) [CBK305073] | 39.6% | 65.1% | 65.1% | 65.1% | 48.4% | 48.4% | 102% | 305.0 | 32.5 | 
10 | 7.1 µM | 7.94 µM | 0.121 | 118% | 144% | 96.6% | 578.1 | CC1CCc2c(sc3ncnc(NCCCN4CCCCCC4=O)c23)C1 (centres unmarked) [CBK305947] | 41.4% | 66.5% | 66.5% | 66.5% | 46.7% | 46.7% | 107% | 316.0 | 34.4 | 
11 |  |  | -0.0106 |  |  |  | 480.2 | CC(C)C(=O)Nc1sc2c(c1C(=O)NCc1cccnc1)CCC2 [CBK306144] |  |  |  |  |  |  |  | 357.0 | ~ 92,84 | approximated IC50, Notch reporter assay (Notch signalling; 14-point dose-response, Fig. 4): Indeterminate
12 |  |  | 0.0127 |  |  |  | 416.6 | CCc1c(C)sc(NC(=O)C2CCC2)c1C(=O)NCc1cccnc1 [CBK307414] |  |  |  |  |  |  |  | 311.0 |  | IC50 (Notch signalling; [13]): 7.5 µM; IC50 (Notch signalling; [2]): 7.4 µM; IC50 (Notch signalling; [4]): 7.94 µM
13 |  |  | -0.6 |  |  |  | 444.5 | CCOC(=O)c1c(NC(=O)NCc2cccnc2)sc2c1CCC2 [CBK307585] |  |  |  |  |  |  |  | 338.0 | 71.6 | IC50 (Notch signalling; [13]): 6.6 µM
14 |  |  | -1.0 |  |  |  | 698.8 | Cc1cc(C)c2[nH]c(C(=O)N[C@H](c3ccccc3)c3ccnn3C)c(C)c2c1 [CBK315984] |  |  |  |  |  |  |  | 607.0 | 96.7 | approximated IC50, Notch reporter assay (Notch signalling; 14-point dose-response, Fig. 4): Indeterminate
15 |  |  | -0.00462 |  |  |  | 411.0 | NC(=O)c1c(NC(=O)NC2CCCCC2)sc2c1CCCC2 [CBK431895] |  |  |  |  |  |  |  | 341.0 | 87.8 | IC50 (Notch signalling; [13]): 33.5 µM
16 |  |  |  |  |  |  |  | CC1=C(C(=O)OC2CCCCC2)C(c2ccc([N+](=O)[O-])cc2)C2=C(CC(C)(C)CC2=O)N1 (centres unmarked) [FLI-06, reference compound] |  |  |  |  |  |  |  |  |  | reporter signal in % of DMSO (Notch signalling; 10 µM): 62%; Notch assay (Notch signalling): active, potency n.d.; APP assay (γ-secretase complex): active, potency n.d.
17 |  |  |  |  |  |  |  | CC(C)[C@H](O)C(=O)N[C@@H](C)C(=O)N[C@@H]1C(=O)N(C)CCc2ccccc21 [LY-450139, Semagacestat, reference compound] |  |  |  |  |  |  |  |  |  | reporter signal in % of DMSO (Notch signalling; 10 µM): 52%; Notch assay (Notch signalling): active, potency n.d.; APP assay (γ-secretase complex): active, potency n.d.

Row | Structure (SMILES) | IC50 (Notch signalling; [1]) | IC50 (Notch signalling; [3]) | Hill-slope (γ-secretase complex; [12]) | remaining activity at 10 µM (γ-secretase complex) | remaining activity at 25 µM (γ-secretase complex) | remaining activity at […] (γ-secretase complex) | AUC APP (γ-secretase complex) | activity at 10 µM (Notch signalling; [5]) | activity at 10 µM (Notch signalling; [6]) | activity at 10 µM (Notch signalling; [7]) | activity at 10 µM (Notch signalling; [8]) | activity at 25 µM (Notch signalling; [9]) | activity at 25 µM (Notch signalling; [10]) | activity (Notch signalling; [11]) | AUC Notch (Notch signalling; replicates averaged) | Bottom (Emax) (Notch signalling; 14p Notch assay DR) | further results
18 | C[C@H](NC(=O)[C@@H](O)c1cc(F)cc(F)c1)C(=O)N[C@@H]1C(=O)N(C)c2ccccc2-c2ccccc21 [LY-411575, reference compound] |  |  |  |  |  |  | 428.9 |  |  |  |  |  |  |  | 373.0 | 46.0 and 46.9 | reporter signal in % of DMSO (Notch signalling; 10 µM): 46%; AUC 9p Notch reporter assay (Notch signalling; [14]): 1.91E+02; IC50 (Notch signalling; 14-point, unit inferred, replicates averaged, read-out: approxiated IC50s 14p Notch reporter assay): 0.00088 µM; Hill-slope (Notch signalling; 14p Notch assay DR, Notch inhibitor controls, no bottom constraint named): -1.3; approximated LogIC50 [M] (Notch signalling; 14p Notch assay DR, log10 value, Notch inhibitor controls, no bottom constraint named): -9.0 M; Hill-Slope 14p Notch reporter assay (Notch signalling; 14p dose response): -1.3; IC50 (Notch signalling; 14p dose response, single replicates, read-out: approximated IC50s 14p Notch reporter assay): 0.00086 µM and 0.0009 µM; AUC 14p Notch reporter assay (Notch signalling; [15]): 3.73E+02; 14p Notch reporter assay averaged IC50s (log) (Notch signalling; 14p dose response, log10 of averaged IC50): -9.1; Notch assay (Notch signalling): highest potency; also recorded: highest activity; Hill-Slope 9p APP counter assay averaged (γ-secretase complex; 9p dose response): -1.0; AUC 9p APP-counter assay (γ-secretase complex; [14]): 1.95E+02; Bottom (Emax) (γ-secretase complex; 14p APP assay DR, Emax indicated independent from assay constraints): 44.6 and 46.0; AUC. 14p APP-counter assay (γ-secretase complex; [15]): 4.29E+02; APP assay (γ-secretase complex): highest potency
